Test results from the supplement of paper PMC10307832.

Legend:
Assay in all cases: relative viability (nuclei count vs DMSO), 5 days (fraction); higher = more cells survive
Vemurafenib + Crizotinib = compound: CCCS(=O)(=O)Nc1ccc(F)c(C(=O)c2c[nH]c3ncc(-c4ccc(Cl)cc4)cc23)c1F [Vemurafenib] + C[C@@H](Oc1cc(-c2cnn(C3CCNCC3)c2)cnc1N)c1c(Cl)ccc(F)c1Cl [Crizotinib] (partner 1 µM)
Outline: (§1)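 One day after seeding in 1536-well plates, lung cancer cell lines were dosed by pin tool. Dosing was either single-drug or a fixed anchor-drug dose plus five library-drug doses (not always all listed) in √10 steps. After 5 days, nuclei were stained in one fix-and-stain step and counted on 4× images, and relative viability is the nuclei count of treated wells over that of vehicle wells, given as the median of duplicate plates.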

Vemurafenib + Trametinib = compound: CCCS(=O)(=O)Nc1ccc(F)c(C(=O)c2c[nH]c3ncc(-c4ccc(Cl)cc4)cc23)c1F [Vemurafenib] + CC(=O)Nc1cccc(-n2c(=O)n(C3CC3)c(=O)c3c(Nc4ccc(I)cc4F)n(C)c(=O)c(C)c32)c1 [Trametinib] (partner 0.02 µM)
Outline: as §1

OSI-027 + Phenformin = compound: COc1cccc2cc(-c3nc([C@H]4CC[C@H](C(=O)O)CC4)n4ncnc(N)c34)[nH]c12 [OSI-027] + N=C(N)NC(=N)NCCc1ccccc1 [Phenformin] (partner 250 µM)
Outline: as §1

Alpelisib + Trametinib = compound: Cc1nc(NC(=O)N2CCC[C@H]2C(N)=O)sc1-c1ccnc(C(C)(C)C(F)(F)F)c1 [Alpelisib] + CC(=O)Nc1cccc(-n2c(=O)n(C3CC3)c(=O)c3c(Nc4ccc(I)cc4F)n(C)c(=O)c(C)c32)c1 [Trametinib] (partner 0.02 µM)
Outline: as §1

Cell Line	relative viability (Vemurafenib + Crizotinib; first compound 0.03162 µM)	relative viability (Vemurafenib + Crizotinib; first compound 0.1 µM)	relative viability (Vemurafenib + Crizotinib; first compound 0.3162 µM)	relative viability (Vemurafenib + Crizotinib; first compound 1 µM)	relative viability (Vemurafenib + Trametinib; first compound 0.03162 µM)	relative viability (Vemurafenib + Trametinib; first compound 0.1 µM)	relative viability (Vemurafenib + Trametinib; first compound 1 µM)	relative viability (OSI-027 + Phenformin; first compound 0.01 µM)	relative viability (OSI-027 + Phenformin; first compound 0.03162 µM)	relative viability (OSI-027 + Phenformin; first compound 0.1 µM)	relative viability (OSI-027 + Phenformin; first compound 0.3162 µM)	relative viability (OSI-027 + Phenformin; first compound 1 µM)	relative viability (Alpelisib + Trametinib; first compound 0.04 µM)	relative viability (Alpelisib + Trametinib; first compound 0.1265 µM)	relative viability (Alpelisib + Trametinib; first compound 0.4 µM)	relative viability (Alpelisib + Trametinib; first compound 1.265 µM)	relative viability (Alpelisib + Trametinib; first compound 4 µM)	relative viability (Vemurafenib + Trametinib; first compound 0.3162 µM)
NCI-H1792	0.905	0.913	0.806	1	0.495	0.482	0.548	0.126	0.168	0.228	0.204	0.173	0.271	0.383	0.467	0.324	0.314	–
NCI-H1734	0.665	0.684	0.579	0.516	0.655	0.641	0.643	0.398	0.398	0.384	0.346	0.238	0.566	0.626	0.624	0.533	0.394	0.66
CAL-12T	0.759	0.644	0.592	0.689	0.28	0.289	0.442	0.584	0.644	0.512	0.618	0.355	0.371	0.259	0.378	0.266	0.193	0.438
NCI-H2347	0.655	0.657	0.397	0.69	0.266	0.215	0.251	0.442	0.371	0.293	0.262	0.296	0.29	0.285	0.394	0.244	0.232	0.263
SK-MES-1	0.934	0.978	0.903	0.901	0.569	–	0.763	0.637	0.608	0.64	0.576	0.305	0.59	0.523	0.534	0.334	0.385	0.589
NCI-H3122	0.266	0.263	0.383	0.211	0.219	0.271	0.304	0.409	0.41	0.454	0.443	0.288	0.201	0.221	0.172	0.181	0.136	0.243
NCI-H23	0.468	0.541	0.654	0.465	0.295	0.314	0.366	0.824	0.767	0.808	0.669	0.533	0.287	0.354	0.252	0.286	0.233	0.457
NCI-H2228	0.428	0.417	0.688	0.469	0.357	0.524	0.439	0.305	0.324	0.307	0.251	0.198	0.415	0.536	0.399	0.314	0.123	0.668
HCC-15	0.75	0.803	0.699	0.81	0.373	0.363	0.429	0.465	0.458	0.45	0.389	0.279	0.354	0.37	0.366	0.248	0.211	0.43
NCI-H358	0.619	–	0.72	0.528	0.155	0.119	0.175	0.309	0.301	0.311	0.334	0.283	0.138	0.118	0.128	0.11	0.1	0.15
COR-L23	0.6	0.524	0.597	0.59	0.619	0.58	0.691	0.53	0.445	0.476	0.445	0.206	0.534	0.484	0.579	0.378	0.353	0.433
NCI-H2009	1.02	0.924	0.754	0.962	0.269	0.272	0.372	0.477	0.48	0.487	0.425	0.277	0.264	0.276	0.28	0.285	0.224	0.21
NCI-H1755	0.798	0.842	0.844	0.79	0.812	0.73	0.763	0.615	0.696	0.594	0.569	0.451	0.852	0.726	0.718	0.72	0.668	0.761
LCLC-97TM1	0.287	0.246	0.301	0.278	–	0.184	0.268	0.477	0.459	0.332	0.246	0.306	0.194	0.167	0.165	0.133	0.159	0.201
NCI-H2085	0.875	0.841	0.822	0.783	0.529	0.477	0.621	0.727	0.701	0.704	0.623	0.503	0.57	0.468	0.496	0.495	0.338	0.663
NCI-H647	1.03	0.963	0.884	0.713	0.496	0.435	0.488	0.569	0.565	0.475	0.415	0.242	0.44	0.473	0.523	0.348	0.481	0.37
